Source: the supplement of paper PMC11061612

Experiments:
Test in all cases: combination Emax (second highest fraction inhibited in the dose matrix, 72 h); higher = more inhibition; extreme values may be limits of the assay
[1] = test system: 639-V (Bladder Carcinoma)
Procedure, shortened: (§1)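 Cell lines in DMEM/F12 or RPMI with 10% FBS were plated in 1536-well plates, held 24 hours at 37°C, 5% CO2, then given two-drug dose matrices for 72 hours (DMSO typically 0.2%). Viability was read by CellTiter-Glo 2.0 luminescence and scaled as inhibition from 0 (vehicle wells) to 1 (blank wells). Combination Emax is the second-highest inhibition in the matrix; Bliss excess is observed combination effect minus expected EA + EB − EA·EB, EA and EB being single-agent effects.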

[2] = test system: 8305C (Thyroid Gland Carcinoma)
Procedure, shortened: as §1

[3] = test system: CAPAN-1 (Pancreatic Carcinoma)
Procedure, shortened: as §1

[4] = test system: COLO-829 (Melanoma)
Procedure, shortened: as §1

[5] = test system: CTB-1 (B-Cell Non-Hodgkin's Lymphoma)
Procedure, shortened: as §1

[6] = test system: Hs-633T (Other Solid Carcinomas)
Procedure, shortened: as §1

[7] = test system: KARPAS-231 (B-Cell Non-Hodgkin's Lymphoma)
Procedure, shortened: as §1

[8] = test system: LU-139 (Small Cell Lung Carcinoma)
Procedure, shortened: as §1

[9] = test system: MHH-PREB-1 (B-Cell Non-Hodgkin's Lymphoma)
Procedure, shortened: as §1

[10] = test system: Mewo (Melanoma)
Procedure, shortened: as §1

[11] = test system: NCI-H2461 (Mesothelioma)
Procedure, shortened: as §1

[12] = test system: NCI-H747 (Colorectal Carcinoma)
Procedure, shortened: as §1

[13] = test system: PCI-30 (Head and Neck Carcinoma)
Procedure, shortened: as §1

[14] = test system: RKO (Colorectal Carcinoma)
Procedure, shortened: as §1

[15] = test system: SH-4 (Melanoma)
Procedure, shortened: as §1

[16] = test system: SK-OV-3 (Ovarian Carcinoma)
Procedure, shortened: as §1

[17] = test system: SU-DHL-6 (B-Cell Non-Hodgkin's Lymphoma)
Procedure, shortened: as §1

[18] = test system: SUP-T1 (T-Lymphoblastic Leukemia)
Procedure, shortened: as §1

[19] = test system: SW626 (Colorectal Carcinoma)
Procedure, shortened: as §1

[20] = test system: TE-4 (Esophageal Squamous Cell Carcinoma)
Procedure, shortened: as §1

Row | SMILES | combination Emax [1] | combination Emax [2] | combination Emax [3] | combination Emax [4] | combination Emax [5] | combination Emax [6] | combination Emax [7] | combination Emax [8] | combination Emax [9] | combination Emax [10] | combination Emax [11] | combination Emax [12] | combination Emax [13] | combination Emax [14] | combination Emax [15] | combination Emax [16] | combination Emax [17] | combination Emax [18] | combination Emax [19] | combination Emax [20]
1 | Cc1c2c(nn1C)CSCc1cc(n(C)n1)CSc1cc(c3ccccc3c1)OCCCc1c(C(=O)O)n(C)c3c-2c(Cl)ccc13 [AZD5991] + CC1(C)CCC(CN2CCN(c3ccc(C(=O)NS(=O)(=O)c4ccc(NCC5CCOCC5)c([N+](=O)[O-])c4)c(Oc4cnc5[nH]ccc5c4)c3)CC2)=C(c2ccc(Cl)cc2)C1 [Venetoclax] (first compound max 1 µM, 7x7, partner max 1 µM) | 0.194 | 0.379 | 0.138 | 0.213 | 0.17 | 0.231 | 1 | 0.777 | 0.13 | 0.653 | 0.181 | 0.196 | 0.218 | 0.225 | 0.642 | 0.219 | 1 | 0.304 | 0.205 | 0.261
2 | COc1cccc(OCCCN)c1-c1cc(Nc2cnc(C#N)cn2)n[nH]1 [Prexasertib] + C=CCn1c(=O)c2cnc(Nc3ccc(N4CCN(C)CC4)cc3)nc2n1-c1cccc(C(C)(C)O)n1 [AZD1775] (first compound max 1 µM, partner max 1 µM) | 0.805 | 0.718 | 0.577 | 0.237 | 0.967 | 0.973 | 0.989 | 0.741 | 0.977 | 0.599 | 0.745 | 0.746 | 0.894 | 0.974 | 0.742 | 0.875 | 0.955 | 0.848 | 0.695 | 0.813
3 | CN(CCO)CC[C@H](CSc1ccccc1)Nc1ccc(S(=O)(=O)NC(=O)c2ccc(N3CCC([C@@H](O)c4ccccc4-c4ccc(Cl)cc4)CC3)cc2)cc1S(=O)(=O)C(F)(F)F [AZD4320] + C[C@@H]1COCCN1C2=NC(=NC(=C2)C3(CC3)[S@](=N)(=O)C)C4=C5C=CNC5=NC=C4 [AZD6738] (first compound max 1 µM, 7x7, partner max 10 µM) | 0.665 | 0.834 | 0.724 | 0.213 | 0.768 | 0.946 | 1 | 0.929 | 0.754 | 0.647 | 0.838 | 0.333 | 0.653 | 0.85 | 0.409 | 0.66 | 0.951 | 0.858 | 0.869 | 0.691
4 | CN(CCO)CC[C@H](CSc1ccccc1)Nc1ccc(S(=O)(=O)NC(=O)c2ccc(N3CCC([C@@H](O)c4ccccc4-c4ccc(Cl)cc4)CC3)cc2)cc1S(=O)(=O)C(F)(F)F [AZD4320] + Cn1cnc2c(F)c(Nc3ccc(Br)cc3Cl)c(C(=O)NOCCO)cc21 [Selumetinib] (first compound max 1 µM, 7x7, partner max 3 µM) | 0.978 | 0.71 | 0.802 | 0.601 | 0.591 | 0.5 | 0.977 | 0.928 | 0.164 | 0.528 | 0.328 | 0.793 | 0.224 | 0.754 | 0.955 | 0.258 | 0.974 | 0.872 | 0.837 | 0.308
5 | CCN(CCO)CCCOc1ccc2c(Nc3cc(CC(=O)Nc4cccc(F)c4)[nH]n3)ncnc2c1 [AZD2811] + C=CCn1c(=O)c2cnc(Nc3ccc(N4CCN(C)CC4)cc3)nc2n1-c1cccc(C(C)(C)O)n1 [AZD1775] (first compound max 1 µM, partner max 1 µM) | 0.265 | 0.89 | 0.416 | 0.274 | 0.876 | 0.649 | 0.993 | 0.567 | 0.718 | 0.402 | 0.638 | 0.414 | 0.344 | 0.655 | 0.456 | 0.434 | 0.734 | 0.839 | 0.427 | 0.171
6 | Cc1c2c(nn1C)CSCc1cc(n(C)n1)CSc1cc(c3ccccc3c1)OCCCc1c(C(=O)O)n(C)c3c-2c(Cl)ccc13 [AZD5991] + C[C@@H](Nc1cc(F)cc(F)c1)c1cc(C(=O)N(C)C)cc2c(=O)cc(N3CCOCC3)oc12 [AZD8186] (first compound max 1 µM, 7x7, partner max 3 µM) | 0.421 | 0.588 | 0.172 | 0.17 | 0.384 | 0.268 | 1 | 0.174 | 0.214 | 0.314 | 0.363 | 0.517 | 0.264 | 0.277 | 0.332 | 0.424 | 1 | 0.279 | 0.223 | 0.377
7 | COc1cc2c(cc1OCCCCCOc1cc3c(cc1OC)C(=O)N1C=C(C)C[C@H]1C=N3)N=C[C@@H]1CC(C)=CN1C2=O [SG3199] + O=C(c1cc(Cc2n[nH]c(=O)c3ccccc23)ccc1F)N1CCN(C(=O)C2CC2)CC1 [Olaparib] (first compound max 0.001 µM, 7x7, partner max 10 µM) | 0.201 | 0.141 | 0.198 | 0.129 | 0.28 | 0.142 | 0.262 | 0.174 | 0.13 | 0.106 | 0.11 | 0.0668 | 0.105 | 0.114 | 0.181 | 0.0705 | 0.171 | 0.442 | 0.102 | 0.233
8 | CN(C)CCCOc1ccc(-c2ccc3ncc4c(c3c2)n(C2CCOCC2)c(=O)n4C)cn1 [AZD0156] + C=CCn1c(=O)c2cnc(Nc3ccc(N4CCN(C)CC4)cc3)nc2n1-c1cccc(C(C)(C)O)n1 [AZD1775] (first compound max 1 µM, partner max 1 µM) | 0.204 | 0.924 | 0.394 | 0.099 | 0.898 | 0.769 | 0.988 | 0.59 | 0.844 | 0.47 | 0.674 | 0.414 | 0.265 | 0.719 | 0.564 | 0.54 | 0.699 | 0.872 | 0.508 | 0.324
9 | COc1cccc(OCCCN)c1-c1cc(Nc2cnc(C#N)cn2)n[nH]1 [Prexasertib] + C[C@@H]1COCCN1C2=NC(=NC(=C2)C3(CC3)[S@](=N)(=O)C)C4=C5C=CNC5=NC=C4 [AZD6738] (first compound max 1 µM, 7x7, partner max 10 µM) | 0.397 | 0.718 | 0.527 | 0.335 | 0.899 | 0.936 | 0.979 | 0.598 | 0.949 | 0.479 | 0.721 | 0.443 | 0.773 | 0.946 | 0.63 | 0.806 | 0.621 | 0.808 | 0.743 | 0.652
10 | Cc1cc2ncnn2cc1Nc1ncc2c(n1)n(C1CCOCC1)c(=O)n2C [AZD7648] + CN(C)CCCOc1ccc(-c2ccc3ncc4c(c3c2)n(C2CCOCC2)c(=O)n4C)cn1 [AZD0156] (first compound max 10 µM, 7x7, partner max 1 µM) | 0.239 | 0.414 | 0.31 | 0.129 | 0.404 | 0.37 | 0.208 | 0.228 | 0.511 | 0.285 | 0.448 | 0.387 | 0.234 | 0.391 | 0.291 | 0.403 | 0.621 | 0.482 | 0.284 | 0.147
11 | COc1cccc(OCCCN)c1-c1cc(Nc2cnc(C#N)cn2)n[nH]1 [Prexasertib] + CCc1c2c(nc3ccc(O)cc13)-c1cc3c(c(=O)n1C2)COC(=O)[C@]3(O)CC [SN-38] (first compound max 1 µM, 7x7, partner max 0.3 µM) | 1 | 0.823 | 0.809 | 0.662 | 0.934 | 0.814 | 1 | 0.899 | 0.96 | 0.721 | 0.705 | 0.724 | 0.966 | 0.909 | 0.684 | 0.853 | 0.991 | 0.819 | 0.819 | 0.881
12 | C[C@@H]1COCCN1c1cc(C2([S@](C)(=N)=O)CC2)nc(-c2ccnc3[nH]ccc23)n1 [AZD6738] + O=C(c1cc(Cc2n[nH]c(=O)c3ccccc23)ccc1F)N1CCN(C(=O)C2CC2)CC1 [Olaparib] (first compound max 10 µM, 7x7, partner max 10 µM) | 0.787 | 0.99 | 0.442 | 0.194 | 0.777 | 0.821 | 0.723 | 0.418 | 0.679 | 0.548 | 0.703 | 0.356 | 0.538 | 0.845 | 0.419 | 0.6 | 0.621 | 0.767 | 0.455 | 0.527
